*1 amine or outer side, *2 acyl side, *3 side chain or, on linkers, in order; H or OH if unused. Where a SMILES comes first, the peptide text is derived from it. Side-chain parts run from the residue outwards. [ ]: non-standard residue; d: D form. The star is where a group is joined. N(2-Aminoethyl)Gly = O=C(CN(CCN[*:3])[*:1])[*:2]; C18 diacid = O=C(O)CCCCCCCCCCCCCCCCC(=O)*; C16 diacid = O=C(O)CCCCCCCCCCCCCCC(=O)*; γGlu = O=C(O)[C@H](CCC(=O)[*:2])N[*:1]; εLys = N[C@@H](CCCCN[*:1])C(=O)[*:2]; AEEA = NCCOCCOCC(=O)O; Aib = CC(C)(N)C(=O)O; Sar = CNCC(=O)O
What was measured:
in vivo = assay: in vivo; parameters: species or system beagle dogs; conditions: dog, po, 300 mg; for Tmax / half-life: male, beagle
Protocol: The purpose of this method is to determine the terminal half-life and plasma exposure in vivo of the compounds of the present invention after p.o. administration to beagle dogs, i.e. the terminal half-life and concentration of test substance that reaches circulation with time. This is done in a pharmacokinetic (PK) study, where these parameters of the compound in question are determined. By terminal half-life is generally meant the period of time it takes to halve a certain plasma concentration, measured after the initial distribution phase.
Tablet compositions comprising the test compounds obtained from Example 1 and SNAC (sodium N-(8-(2-hydroxybenzoyl)amino)caprylate) were prepared according to methods known to the person skilled in the art by mixing test substance with roller compacted SNAC and magnesium stearate as e.g. described in WO 2019/149880. Each tablet was comprised of 7.7 mg magnesium stearate, 2-4 mg of each compound tested, and 300 mg SNAC.
Male beagle dogs, 1-7 years of age and weighing 9-17 kg during the study period, were included in the study. The dogs were dosed in a fasting state. The dogs were group housed in pens (12 hours light: 12 hours dark), and fed individually and restrictedly once daily with Royal Canin Medium Adult dog food (Royal Canin Products, China Branch, or Brogaarden A/S, Denmark). The dogs were used for repeated PK studies with a suitable wash-out period between successive dosing. An appropriate acclimatisation period was given prior to initiation of the first PK study. All handling, dosing, and blood sampling of the animals were performed by trained and skilled staff. Before the studies, the dogs were fasted overnight and from 0 to 4 hours after dosing. The dogs were restricted to water 1 hour before dosing until 4 hours after dosing, but otherwise had adlibitum access to water during the whole period.
The compositions were administered by a single oral dosing to the dogs in groups of 6-8 dogs. The tablets were administered in the following manner: 10 min prior to tablet administration, the dogs may be dosed subcutaneously with approximately 3 nmol/kg of SEQ ID NO.: 7 ([…]), then tablets were placed in the back of the mouth of the dog to prevent chewing. The mouth was then closed, and 10 mL of tap water was given by syringe or gavage to facilitate swallowing of the tablet.
One blood sample was drawn before dosing, and additional samples were drawn at predefined time points after dosing, such as for up to 600 hours, to adequately cover the full plasma concentration-time absorption profile of the test substance. For each blood sample time point, approximately 0.8 mL of whole blood was collected in a 1.5 mL EDTA-coated tube, which was gently turned to mix the sample with EDTA. Blood samples were collected in EDTA buffer (8 mM) and then centrifuged at 4° C. and 2000 g for 10 minutes. Plasma was pipetted into Micronic tubes on dry ice, and kept at −20° C. or lower until analysis. Blood samples were taken as appropriate, for example from a venflon in the cephalic vein in the front leg for the first 2 hours and then with syringe from the jugular vein for the rest of the time points. The first few drops were allowed to drain from the venflon to avoid heparin saline from the venflon in the sample. All blood samples were collected into test tubes containing EDTA for stabilisation and kept on ice until centrifugation. Plasma was separated from whole blood by centrifugation and the plasma was stored at −20° C. or lower until analysis.
The plasma was analysed for test substance using LC-MS (Liquid Chromatography-Mass Spectrometry) as known to the person skilled in the art. […]

physchem = assay type: physicochemical; conditions: buffer, pH 7.4
Protocol: The assay was performed to investigate the conversion half-life of prodrug to drug of the prodrugs of the invention. The conversion half-life was investigated in vitro at pH 7.4 upon incubation at 37° C.
Test compounds were dissolved to a concentration of 100 μM in phosphate-buffered saline (140 mM NaCl, 2.07 mM KCl, 8.05 mM Na2HPO4, 1.96 mM KH2PO4, pH 7.4). Solution pH was measured after dissolution and adjusted to pH 7.4 with aqueous NaOH if necessary. The solution was filtered through a 0.22 μm syringe filter, then incubated in a water bath at 37° C. Aliquots were withdrawn at defined timepoints, e.g. every 24-72 hours, for LCMS analysis.
LCMS analysis was performed using the procedure defined in LCMS_A above. The AUC of the prodrug, active drug, and DKP were determined using UV detection at 214 nm, and the ratio of prodrug AUC over total AUC of prodrug plus active drug plus DKP was calculated. The negative natural logarithm of this ratio was plotted over time, and a linear regression of this relationship was then performed.
The prodrug to drug conversion half-life of the compounds of the invention was measured as described in General Methods for Measuring Conversion Half-life.

Compound	AUC/Dose (in vivo)	Cmax/Dose (in vivo)	Tmax (in vivo)	half-life (in vivo)	half-life at 100 μM (physchem)
CC[C@H](C)[C@H](NC(=O)[C@H](CC(C)C)NC(=O)[C@H](Cc1c[nH]c2ccccc12)NC(=O)[C@H](CCC(N)=O)NC(=O)[C@@H](NC(=O)[C@H](Cc1ccccc1)NC(=O)[C@H](C)NC(=O)[C@H](CCCCNC(=O)COCCOCCNC(=O)COCCOCCNC(=O)CC[C@H](NC(=O)CCCCCCCCCCCCCCCCCCC(=O)O)C(=O)O)NC(=O)[C@H](CCC(N)=O)NC(=O)[C@H](C)NC(=O)[C@@H](NC(=O)[C@H](CCCCN)NC(=O)[C@H](CC(=O)O)NC(=O)[C@H](CC(C)C)NC(=O)C(C)(C)NC(=O)[C@@H](NC(=O)[C@H](CO)NC(=O)[C@H](Cc1ccc(O)cc1)NC(=O)[C@H](CC(=O)O)NC(=O)[C@H](CO)NC(=O)[C@@H](NC(=O)[C@H](Cc1ccccc1)NC(=O)[C@@H](NC(=O)CNC(=O)[C@H](CCC(=O)O)NC(=O)C(C)(C)NC(=O)[C@H](Cc1ccc(O)cc1)NC(=O)[C@@H](NC(=O)[C@@H](N)CCCCNC(=O)CC[C@H](NC(=O)CCCCCCCCCCCCCCC(=O)O)C(=O)O)C(C)C)[C@@H](C)O)[C@@H](C)O)[C@@H](C)CC)[C@@H](C)CC)C(C)C)C(=O)N[C@@H](C)C(=O)NCC(=O)NCC(=O)N1CCC[C@H]1C(=O)N[C@@H](CO)C(=O)N[C@@H](CO)C(=O)NCC(=O)N[C@@H](C)C(=O)N1CCC[C@H]1C(=O)N1CCC[C@H]1C(=O)N1CCC[C@H]1C(=O)N[C@@H](CO)C(N)=O [Non-converting compound 4]	18.9 kg·h/L	0.16 kg/L	7 h	136 h	–
CC[C@H](C)[C@H](NC(=O)[C@H](CC(C)C)NC(=O)[C@H](Cc1c[nH]c2ccccc12)NC(=O)[C@H](CCC(N)=O)NC(=O)[C@@H](NC(=O)[C@H](Cc1ccccc1)NC(=O)[C@H](C)NC(=O)[C@H](CCCCNC(=O)COCCOCCNC(=O)COCCOCCNC(=O)CC[C@H](NC(=O)CCCCCCCCCCCCCCCCCCC(=O)O)C(=O)O)NC(=O)[C@H](CCC(N)=O)NC(=O)[C@H](C)NC(=O)[C@@H](NC(=O)[C@H](CCCCN)NC(=O)[C@H](CC(=O)O)NC(=O)[C@H](CC(C)C)NC(=O)C(C)(C)NC(=O)[C@@H](NC(=O)[C@H](CO)NC(=O)[C@H](Cc1ccc(O)cc1)NC(=O)[C@H](CC(=O)O)NC(=O)[C@H](CO)NC(=O)[C@@H](NC(=O)[C@H](Cc1ccccc1)NC(=O)[C@@H](NC(=O)CNC(=O)[C@H](CCC(=O)O)NC(=O)C(C)(C)NC(=O)[C@@H](N)Cc1ccc(O)cc1)[C@@H](C)O)[C@@H](C)O)[C@@H](C)CC)[C@@H](C)CC)C(C)C)C(=O)N[C@@H](C)C(=O)NCC(=O)NCC(=O)N1CCC[C@H]1C(=O)N[C@@H](CO)C(=O)N[C@@H](CO)C(=O)NCC(=O)N[C@@H](C)C(=O)N1CCC[C@H]1C(=O)N1CCC[C@H]1C(=O)N1CCC[C@H]1C(=O)N[C@@H](CO)C(N)=O [Parent compound 5]	13.0 kg·h/L	0.22 kg/L	1 h	134 h	–
H-G[N(2-Aminoethyl)Gly]([γGlu-C16 diacid])Y[Aib]EGTFTSDYSILLEEQAAREFIEWLLAGGPSK([AEEA-AEEA-γGlu-C16 diacid])GAPPPS-OH [Compound 2]	22.9 kg·h/L	0.18 kg/L	4 h	142 h	363 h
H-[dK]([εLys-γGlu-C16 diacid])[Sar]Y[Aib]EGTFTSDYSILLEEQAAREFIEWLLAGGPSK([AEEA-AEEA-γGlu-C16 diacid])GAPPPS-OH [Compound 11]	–	–	–	–	182 h
H-A[N(2-Aminoethyl)Gly]([γGlu-C16 diacid])Y[Aib]EGTFTSDYSILLEEQAAREFIEWLLAGGPSK([AEEA-AEEA-γGlu-C16 diacid])GAPPPS-OH [Compound 4]	–	–	–	–	97 h
H-K([γGlu-C16 diacid])VY[Aib]EGTFTSDYSILLEEQAAREFIEWLLAGGPSK([εLys-εLys-γGlu-C16 diacid])GAPPPS-OH [Non-converting compound 2]	10.8 kg·h/L	0.13 kg/L	1.3 h	130 h	–
H-K([γGlu-C16 diacid])VY[Aib]EGTFTSDYSILLEK([εLys-εLys-γGlu-C18 diacid])QAAREFIEWLLAGGPSSGAPPPS-OH [Non-converting compound 3]	31.4 kg·h/L	0.27 kg/L	4 h	115 h	–
H-G[N(2-Aminoethyl)Gly]([γGlu-C16 diacid])Y[Aib]EGTFTSDYSILLEK([εLys-εLys-γGlu-C18 diacid])QAAREFIEWLLAGGPSSGAPPPS-OH [Compound 17]	30.4 kg·h/L	0.30 kg/L	1.5 h	105 h	–
CC[C@H](C)[C@H](NC(=O)[C@H](Cc1ccccc1)NC(=O)[C@H](CCC(=O)O)NC(=O)[C@H](CCCNC(=N)N)NC(=O)[C@H](C)NC(=O)[C@H](C)NC(=O)[C@H](CCC(N)=O)NC(=O)[C@H](CCC(=O)O)NC(=O)[C@H](CCC(=O)O)NC(=O)[C@H](CC(C)C)NC(=O)[C@H](CC(C)C)NC(=O)[C@@H](NC(=O)[C@H](CO)NC(=O)[C@H](Cc1ccc(O)cc1)NC(=O)[C@H](CC(=O)O)NC(=O)[C@H](CO)NC(=O)[C@@H](NC(=O)[C@H](Cc1ccccc1)NC(=O)[C@@H](NC(=O)CNC(=O)[C@H](CCC(=O)O)NC(=O)C(C)(C)NC(=O)[C@@H](N)Cc1ccc(O)cc1)[C@@H](C)O)[C@@H](C)O)[C@@H](C)CC)C(=O)N[C@@H](CCC(=O)O)C(=O)N[C@@H](Cc1c[nH]c2ccccc12)C(=O)N[C@@H](CC(C)C)C(=O)N[C@@H](CC(C)C)C(=O)N[C@@H](C)C(=O)NCC(=O)NCC(=O)N1CCC[C@H]1C(=O)N[C@@H](CO)C(=O)N[C@@H](CCCCNC(=O)[C@@H](N)CCCCNC(=O)[C@@H](N)CCCCNC(=O)CC[C@H](NC(=O)CCCCCCCCCCCCCCCCC(=O)O)C(=O)O)C(=O)NCC(=O)N[C@@H](C)C(=O)N1CCC[C@H]1C(=O)N1CCC[C@H]1C(=O)N1CCC[C@H]1C(=O)N[C@@H](CO)C(=O)O [Parent compound 3] (H-Y[Aib]EGTFTSDYSILLEEQAAREFIEWLLAGGPSK([εLys-εLys-γGlu-C18 diacid])GAPPPS-OH)	21.4 kg·h/L	0.22 kg/L	–	–	–
H-D[N(2-Aminoethyl)Gly]([γGlu-C16 diacid])Y[Aib]EGTFTSDYSILLEEQAAREFIEWLLAGGPSK([AEEA-AEEA-γGlu-C16 diacid])GAPPPS-OH [Compound 7]	–	–	–	–	38 h
H-P[N(2-Aminoethyl)Gly]([γGlu-C16 diacid])Y[Aib]EGTFTSDYSILLEEQAAREFIEWLLAGGPSK([AEEA-AEEA-γGlu-C16 diacid])GAPPPS-OH [Compound 6]	–	–	–	–	440 h
H-K([γGlu-γGlu-C16 diacid])[Sar]Y[Aib]EGTFTSDYSILLEEQAAREFIEWLLAGGPSK([AEEA-AEEA-γGlu-C16 diacid])GAPPPS-OH [Compound 8]	–	–	–	–	125 h
